Source: ChEMBL document CHEMBL5584231, “Rational design of a new short anticancer peptide with good potential for cancer treatment” (Eur J Med Chem, 2024)
Activity calls are given as the source filed them. No cut-off for these calls is given here.

Key:
Cell membrane [1] = assay: Disruption of cell membrane integrity in human MCF7 cells assessed as increase in PI fluorescence measured after 1 hr by laser confocal scanning microscopic analysis; type: cell membranes
[2] = Therapeutic index, ratio of HC10 for mouse RBC to IC50 for cytotoxicity against human HeLa cells; type: toxicity, cell-based; details: mouse RBC and HeLa cells, read-out: TI
[3] = Therapeutic index, ratio of HC10 for mouse RBC to IC50 for cytotoxicity against human A549 cells; type: toxicity, cell-based; details: mouse RBC and A549 cells, read-out: TI
Cell membrane [4] = assay: Induction of morphological changes in cell membrane of human MCF7 cells assessed as cell depression at 1 times IC50 incubated for 1 hr by SEM analysis; type: cell membranes
MCF7 [5] = assay: Cytotoxicity against human MCF7 cells assessed as inhibition of cell growth incubated for 1 hr by MTT assay; type: functional, cell-based; details: MCF7, 1 h
Cell membrane [6] = assay: Disruption of cell membrane in human MCF7 cells assessed as LDH release at 40 uM incubated for 1 hr by fluorescence based microplate reader analysis relative to control; type: cell membranes
Cell membrane [7] = assay: Induction of cell membrane damage in human MCF7 cells assessed as nucleic acid leakage at 1 to 2 times IC50 measured after 0.5 to 6 hrs by UV based analysis; type: cell membranes; details: time 0.5-6 hrs
[8] = Hemolytic activity in mouse RBC at 12.5 uM incubated for 1 hr by absorbance based assay relative to control; type: toxicity, cell-based, Erythrocyte; details: red blood cells (erythrocytes), read-out: Activity
Cell membrane [9] = assay: Induction of morphological changes in cell membrane of human MCF7 cells assessed as membrane damage at 1 times IC50 incubated for 1 hr by SEM analysis; type: cell membranes
Cell membrane [10] = assay: Induction of cell membrane damage in human MCF7 cells assessed as protein leakage at 1 to 2 times IC50 measured after 0.5 to 6 hrs by UV based analysis; type: cell membranes; details: time 0.5-6 hrs
A549 = assay: Cytotoxicity against human A549 cells assessed as inhibition of cell growth incubated for 1 hr by MTT assay; type: functional, cell-based; details: A549, 1 h
Cell membrane [11] = assay: Disruption of cell membrane integrity in human MCF7 cells assessed as increase in PI fluorescence at 1 times IC50 by laser confocal scanning microscopic analysis; details: time 0-120 min, TDE = time-dependent effect
[12] = Therapeutic index, ratio of HC10 for mouse RBC to IC50 for cytotoxicity against human MCF7 cells; type: toxicity, cell-based; details: mouse RBC and MCF7 cells, read-out: TI
[13] = Therapeutic index, ratio of HC10 for mouse RBC to IC50 for cytotoxicity against RG cells (unknown origin); type: toxicity, cell-based; details: mouse RBC and RG cells, read-out: TI
HeLa = assay: Cytotoxicity against human HeLa cells assessed as inhibition of cell growth incubated for 1 hr by MTT assay; type: functional, cell-based
[14] = Cytotoxicity against HK-2 cells assessed as inhibition of cell growth incubated for 1 hr by MTT assay; type: toxicity, cell-based; details: human
Cell membrane [15] = assay: Disruption of cell membrane integrity in human MCF7 cells assessed as increase in PI fluorescence at 2 times IC50 measured after 0 to 120 mins by laser confocal scanning microscopic analysis; type: cell membranes; details: time 0-120 min
[16] = Toxicity in female Balb/c mouse implanted with mouse 4T1 cells assessed as reduction in body weight at 12 micromol/kg, ip administered every other day for 2 weeks and measured every 2 days; type: organism-based; details: in vivo, 336 h, dose 12 µmol/kg
[17] = Acute toxicity in female Balb/c mouse assessed as reduction in survival rate at 30 mg/kg, ip administered as single dose and measured for 7 days; type: organism-based; details: in vivo, 168 h, time 7 day
MCF7 [18] = assay: Cytotoxicity against human MCF7 cells assessed as cell viability at 2 times IC50 measured within 8 hrs by MTT assay; type: functional, cell-based
MCF7 [19] = assay: Cytotoxicity against human MCF7 cells assessed as cell killing at 1 times IC50 measured at 24 hrs by MTT assay; type: functional, cell-based
MCF7 [20] = assay: Induction of apoptosis in human MCF7 cells assessed as increase in intracellular ROS generation at 1 times IC50 measured after 0 to 360 mins by DCFH-DA staining based analysis; type: functional, cell-based; details: time 0-360 min
[21] = Toxicity in female Balb/c mouse implanted with mouse 4T1 cells assessed as pathological changes in liver at 12 micromol/kg, ip administered every other day for 2 weeks by H and E staining based analysis; type: organism-based; details: in vivo, 336 h, dose 12 µmol/kg
MCF7 [22] = assay: Induction of apoptosis in human MCF7 cells assessed as dead cells at 1 times IC50 measured after 24 hrs by Annexin V-FITC staining based flow cytometry analysis (reference value: 6.41%); type: functional
4T1 [23] = assay: Antitumor activity against mouse 4T1 cells implanted in female Balb/c mouse assessed as reduction in tumor weight at 12 micromol/kg, ip administered every other day for 2 weeks and measured every 2 days relative to control; type: functional; parameters: scale not given: the % may be the effect or the level left; details: dose 12 µmol/kg
MCF7 [24] = assay: Induction of apoptosis in human MCF7 cells assessed as live cells at 1 times IC50 measured after 24 hrs by Annexin V-FITC staining based flow cytometry analysis (reference value: 92%); type: functional
4T1 [25] = assay: Antitumor activity against mouse 4T1 cells implanted in female Balb/c mouse assessed as increase in tumor cell necrosis at 12 micromol/kg, ip administered every other day for 2 weeks by H and E staining based analysis; type: functional, organism-based; details: dose 12.0 µmol/kg
Cell membrane [26] = assay: Induction of morphological changes in cell membrane of human MCF7 cells assessed as effect on normal cell shape with intact membrane surface at 1 to 2 times IC50 incubated for 1 hr by SEM analysis; type: cell membranes
Cell membrane [27] = assay: Disruption of cell membrane integrity in human MCF7 cells assessed as increase in PI fluorescence at 1 to 2 times IC50 measured after 1 hr by laser confocal scanning microscopic analysis; type: cell membranes
[28] = Toxicity in female Balb/c mouse implanted with mouse 4T1 cells assessed as pathological changes in lung at 12 micromol/kg, ip administered every other day for 2 weeks by H and E staining based analysis; type: organism-based; details: in vivo, 336 h, dose 12 µmol/kg
[29] = Acute toxicity in female Balb/c mouse assessed as heart damage at approximately LD50 administered as single ip dose by H and E staining based analysis; type: organism-based; details: in vivo
[30] = Acute toxicity in female Balb/c mouse assessed as shrinking cytoplasm in kidney at approximately LD50 administered as single ip dose by H and E staining based analysis; type: organism-based; details: in vivo
4T1 [31] = assay: Antitumor activity against mouse 4T1 cells implanted in female Balb/c mouse assessed as reduction in tumor growth at 12 micromol/kg, ip administered every other day for 2 weeks and measured every 2 days; type: functional, organism-based; details: dose 12.0 µmol/kg
MCF7 [32] = assay: Induction of apoptosis in human MCF7 cells assessed as early apoptotic cells at 1 times IC50 measured after 24 hrs by Annexin V-FITC staining based flow cytometry analysis (reference value: 0.014%); type: functional
[33] = Acute toxicity in female Balb/c mouse assessed as necrosis in kidney at approximately LD50 administered as single ip dose by H and E staining based analysis; type: organism-based; details: in vivo
[34] = Toxicity in female Balb/c mouse implanted with mouse 4T1 cells assessed as pathological changes in kidney at 12 micromol/kg, ip administered every other day for 2 weeks by H and E staining based analysis; type: organism-based; details: in vivo, 336 h, dose 12 µmol/kg
[35] = Toxicity in female Balb/c mouse implanted with mouse 4T1 cells assessed as animal death at 12 micromol/kg, ip administered every other day for 2 weeks; type: organism-based; details: in vivo, 336 h, dose 12 µmol/kg
Cell membrane [36] = assay: Disruption of cell membrane in human MCF7 cells assessed as LDH release at 2.5 to 40 uM incubated for 1 hr by fluorescence based microplate reader analysis; type: cell membranes; details: dose 2.5-40 µM
MCF7 [37] = assay: Anti-invasion activity in human MCF7 cells assessed as reduction in number of passing cells on polycarbonate membrane at 1 times IC50 measured after 24 hrs by crystal violet staining based transwell assay; type: functional, cell-based
MCF7 [38] = assay: Cytotoxicity against human MCF7 cells assessed as cell killing at 1 times IC50 measured within 12 hrs by MTT assay; type: functional, cell-based
Cell membrane [39] = assay: Disruption of cell membrane integrity in human MCF7 cells assessed as increase in PI fluorescence at 1 times IC50 measured after 0 to 120 mins by laser confocal scanning microscopic analysis; type: cell membranes; details: time 0-120 min
MCF7 [40] = assay: Cytotoxicity against human MCF7 cells assessed as cell survival at 2 times IC50 incubated for 24 hrs by MTT assay relative to control; type: functional
MCF7 [41] = assay: Effect on cell cycle progression in human MCF7 cells at 1 times IC50 measured after 1 hr by PI/RNase staining based flow cytometry analysis; type: functional
MCF7 [42] = assay: Induction of cell cycle arrest at G2/M phase in human MCF7 cells assessed as increase in cells at G2/M phase at 1 times IC50 measured after 24 hrs by PI/RNase staining based flow cytometry analysis; type: functional
[43] = Acute toxicity in female Balb/c mouse assessed as reduction in survival rate at 38 to 60 mg/kg, ip administered as single dose and measured for 7 days; type: organism-based; details: in vivo, 168 h, dose 38-60 mg/kg, time 7 day
[44] = Acute toxicity in ip dosed female Balb/c mouse administered as single dose and measured for 7 days by karber method; type: organism-based; details: in vivo, time 7 day
4T1 [45] = assay: Antitumor activity against mouse 4T1 cells implanted in female Balb/c mouse assessed as increase in tumor cell apoptosis at 12 micromol/kg, ip administered every other day for 2 weeks by H and E staining based analysis; type: functional, organism-based; details: dose 12.0 µmol/kg
[46] = Toxicity in female Balb/c mouse implanted with mouse 4T1 cells assessed as pathological changes in spleen at 12 micromol/kg, ip administered every other day for 2 weeks by H and E staining based analysis; type: organism-based; details: in vivo, 336 h, dose 12 µmol/kg
MCF7 [47] = assay: Antimigratory activity in human MCF7 cells assessed as reduction in cell migration at 1 times IC50 measured after 24 hrs by scratch-wound healing assay; type: functional, cell-based
MCF7 [48] = assay: Induction of apoptosis in human MCF7 cells assessed as late apoptotic cells at 1 times IC50 measured after 24 hrs by Annexin V-FITC staining based flow cytometry analysis (reference value: 1.60%); type: functional
[49] = Toxicity in female Balb/c mouse implanted with mouse 4T1 cells assessed as pathological changes in heart at 12 micromol/kg, ip administered every other day for 2 weeks by H and E staining based analysis; type: organism-based; details: in vivo, 336 h, dose 12 µmol/kg
MCF7 [50] = assay: Cytotoxicity against human MCF7 cells assessed as cell survival at 2 times IC50 incubated for 12 hrs by MTT assay relative to control; type: functional

For `CC[C@H](C)[C@H](NC(=O)CN)C(=O)NCC(=O)N[C@@H](C)C(=O)N[C@H](C(=O)N[C@@H](CC(C)C)C(=O)N[C@@H](CCCCN)C(=O)N[C@H](C(=O)N[C@@H](CC(C)C)C(=O)N[C@H](C(=O)N[C@H](C(=O)NCC(=O)N[C@@H](CC(C)C)C(=O)N1CCC[C@H]1C(=O)N[C@@H](C)C(=O)N[C@@H](CC(C)C)C(=O)N[C@H](C(=O)N[C@@H](CO)C(=O)N[C@@H](Cc1c[nH]c2ccccc12)C(=O)N[C@H](C(=O)N[C@@H](CCCCN)C(=O)N[C@@H](CCCNC(=N)N)C(=O)N[C@@H](CCCCN)C(=O)N[C@@H](CCCNC(=N)N)C(=O)N[C@@H](CCC(N)=O)C(=O)N[C@@H](CCC(N)=O)C(N)=O)[C@@H](C)CC)[C@@H](C)CC)[C@@H](C)O)[C@@H](C)O)C(C)C)C(C)C` [MELITTIN], the Activity (Cell membrane [1]) was “Dose-Dependent Effect”, the selectivity ratio [2] was 1.44 and the selectivity ratio [3] was 0.733. The Activity (Cell membrane [4]) was “Active”, the IC50 (MCF7 [5]) was 1790 nM and the Activity (Cell membrane [6]) was 86.8%. The Activity (Cell membrane [7]) was “Active”, the hemolysis at 1 h, 12.5 µM [8] was > 85% and the Activity (Cell membrane [9]) was “Active”. For the same compound, the Activity (Cell membrane [10]) was “Active”, the IC50 (A549) was 1830 nM and the Activity (Cell membrane [11]) was “Tde”. The selectivity ratio [12] was 0.747, the selectivity ratio [13] was 0.859 and the IC50 (HeLa) was 934 nM. It also gave an IC50 at 1 h [14] of 802 nM.
With `CC(=O)O[C@H]1C(=O)[C@@]2(C)[C@H]([C@H](OC(=O)c3ccccc3)[C@]3(O)C[C@H](OC(=O)[C@H](O)[C@@H](NC(=O)c4ccccc4)c4ccccc4)C(C)=C1C3(C)C)[C@]1(OC(C)=O)CO[C@@H]1C[C@@H]2O` [PACLITAXEL] the Activity (Cell membrane [15]) was “inactive”, the Activity [16] was “Non-Toxic” and the Activity [17] was “Non-Toxic”. The Activity (MCF7 [18]) was “inactive”, the Activity (MCF7 [19]) was “Active” and the Activity (MCF7 [20]) was “Active”. The Activity [21] was “Non-Toxic”, the Activity (MCF7 [22]) was 1.13% and the Activity (4T1 [23]) was 21.6%. The Activity (MCF7 [24]) was 30.2%, the Activity (4T1 [25]) was “Active” and the Activity (Cell membrane [26]) was “inactive”. For the same compound, the Activity (Cell membrane [7]) was “inactive”, the Activity (Cell membrane [27]) was “inactive” and the Activity [28] was “Non-Toxic”. For the same compound, the Activity [29] was “Non-Toxic”, the Activity [30] was “Toxic” and the Activity (Cell membrane [10]) was “inactive”. For the same compound, the Activity (4T1 [31]) was “Active”, the Activity (MCF7 [32]) was 48.4% and the Activity [33] was “Toxic”. For the same compound, the Activity [34] was “Non-Toxic”, the Activity [35] was “Non-Toxic” and the Activity (Cell membrane [36]) was “inactive”. For the same compound, the Activity (MCF7 [37]) was “Active”, the Activity (MCF7 [38]) was “inactive” and the Activity (Cell membrane [39]) was “inactive”. For the same compound, the Survival (MCF7 [40]) was ~9.7%, the Activity (MCF7 [41]) was “inactive” and the Activity (MCF7 [42]) was “Active”. The Activity [43] was “Toxic”, the LD50 at 168 h [44] was 39.7 mg/kg and the Activity (4T1 [45]) was “Active”. For the same compound, the Activity [46] was “Non-Toxic”, the Activity (MCF7 [47]) was “Active” and the Activity (MCF7 [48]) was 20.3%. The Activity [49] was “Non-Toxic” and the Survival (MCF7 [50]) was ~23.8%.
